# Source: US20170290774A1, “NEUROKININ-1 RECEPTOR ANTAGONIST COMPOSITION FOR TREATMENT OF DISEASES AND CONDITIONS OF THE RESPIRATORY TRACT” (PLUS VITECH, S.L., priority 2014, published 2017)
# System: MMP-14
# Test: Immunohistochemistry of MMP-14 in respiratory tract tissue of sodium hypochlorite aerosol-treated rabbits
# Format: in vivo, New Zealand albino rabbits
# Excerpt: It is known that the factors TGF-α, TGF-β 1, TGF-β 2, TGF-β 3, SPARC, MMP-3; MMP-7, MMP-9, MMP-11, MMP-13 and MMP-14, TGF-β, NF-kB, EGF, MMP-9, VEGF and TNF-α which are produced by lung cells (pneumocytes, fibroblasts and vascular endothelial cells) and inflammatory cells (macrophages, lymphocytes and polymorphonuclear leukocytes) are involved in the pathophysiology and development of said respiratory tract diseases. […] Herein, 27 New Zealand albino rabbits (New Zealand White Rabbit) with an initial average weight about 3 kg were used in this example. All subjects were administered an aerosol of a solution consisting of a mixture of water and sodium hypochlorite (35 g sodium hypochlorite per liter of water) at a rate of 5 mL of said solution by inhalation three times a day for 7 days (days 1 to 7 of experimentation). Subsequently, from days 3 to 7, a group of 3 rabbits (Group 1) was administered an oral dose of 10 mg/kg body weight per day, another group of 3 rabbits (Group 2) was administered an oral dose of 40 mg/kg body weight per day, a third group (Group 3) was administered an oral dose of 80 mg/kg body weight per day and a fourth group (Group 4) was administered an oral dose of 100 mg/kg body weight per day. […] This mixture was administered as an aerosol by inhalation, also from days 3 to 7, to a group of 3 rabbits (group 5) at a dose of 0.05 mg/kg body weight per day, to another group of three rabbits (Group 6) at a dose of 0.1 mg/kg body weight per day, to another group of three rabbits (Group 7) at a dose of 0.2 mg/kg body weight per day and to another group of three rabbits (Group 8) at a dose of 0.4 mg/kg body weight per day. A placebo consisting only of olive oil was administered from days 3 to 7 to a control group of 3 rabbits (placebo group). In parallel, 3 rabbits were kept under identical conditions but were not administered any treatment nor the aforementioned sodium hypochlorite solution (control group). […] On day 7 of the experiment all animals were euthanized and necropsied. […] Samples were taken at the peripheral level of the lung parenchyma, just below the pleural surface. Tissue samples were also taken from the nasal cavity, pharynx, larynx and bronchi. Immunohistochemistry studies were performed for all samples to evaluate the levels of the markers TGF-α, TGF-β 1, TGF-β 2, TGF-β 3 SPARC, MMP-3; MMP-7, MMP-9, MMP-11, MMP-14, TGF-β, TNF-α and VEGF. In said immunohistochemistry studies, a sample of each sample was dehydrated by treatment with increasing concentrations of ethanol and finally xylene. Subsequently said dried samples were embedded in paraffin, thus creating a block. Said paraffin blocks were cut on a microtome to a thickness of 5 μm, and the resulting sections (slices) were placed on slides suitable for conducting immunohistochemistry techniques. Subsequently, the sections were deparaffinised by immersion in xylene and then rehydrated through immersion in a series of solutions containing decreasing concentrations of ethanol and, finally, water. […] The samples were then allowed to cool to room temperature over 10 minutes. Endogenous peroxidase activity was blocked by treatment with 3% hydrogen peroxide over 30 min at room temperature. […] In order to verify the expression of NK1 receptors, the cell samples were incubated in the presence of anti-NK1 antibodies ([…], Sigma-Aldrich) diluted 1:1000 at 4° C. overnight. After this time they were washed in 0.05M Tris buffer at room temperature. Subsequently, Envision System-HRP (Dako) reagents were added for 30 min at room temperature. Once this time had expired, the samples were again washed with 0.05 M Tris buffer, and immunoreactivity was visualized by light microscopy with a chromogenic solution with 3,3'-diaminobenzidine (DAB+; Dako, USA). In order to differentiate the cell nuclei, these were lightly stained with haematoxylin. Samples that were not incubated with the primary antibody, but wherein this was replaced by a non-immune serum were used as negative controls. […]
smiles,measurement,setting,value
"C[C@@H](OC1OCCN(Cc2nc(=O)[nH][nH]2)C1c1ccc(F)cc1)c1cc(C(F)(F)F)cc(C(F)(F)F)c1 (stereo in doubt) [Aprepitant, 5-([(2R,3S)-2-((R)-1-[3,5-bis(trifluoromethyl)phenyl]ethoxy)-3-(4-fluorophenyl)morpholino]methyl)-1H-1,2,4-triazol-3(2H)-one]",Percent increase in MMP-14 with respect to the control group,"bronchial tissue, Group 1, oral 10 mg/kg per day",567.32%
same,Percent increase in MMP-14 with respect to the control group,"bronchial tissue, Group 2, oral 40 mg/kg per day",434.45%
same,Percent increase in MMP-14 with respect to the control group,"bronchial tissue, Group 3, oral 80 mg/kg per day",325.56%
same,Percent increase in MMP-14 with respect to the control group,"bronchial tissue, Group 4, oral 100 mg/kg per day",312.56%
same,% Med G5/C: percent increase in marker MMP-14 with respect to the control group,"bronchial tissue, Group 5",458.45%
same,% Med G6/C: percent increase in marker MMP-14 with respect to the control group,"bronchial tissue, Group 6",342.32%
same,% Med G7/C: percent increase in marker MMP-14 with respect to the control group,"bronchial tissue, Group 7",246.47%
same,% Med G8/C: percent increase in marker MMP-14 with respect to the control group,"bronchial tissue, Group 8",164.63%
same,Percent increase in MMP-14 with respect to the control group,"laryngeal tissue, Group 1, oral 10 mg/kg per day",678.45%
same,Percent increase in MMP-14 with respect to the control group,"laryngeal tissue, Group 2, oral 40 mg/kg per day",567.34%
same,Percent increase in MMP-14 with respect to the control group,"laryngeal tissue, Group 3, oral 80 mg/kg per day",459.43%
same,Percent increase in MMP-14 with respect to the control group,"laryngeal tissue, Group 4, oral 100 mg/kg per day",387.34%
same,Percent increase in MMP-14 with respect to the control group,"laryngeal tissue, Group 5, inhalation 0.05 mg/kg per day",639.34%
same,Percent increase in MMP-14 with respect to the control group,"laryngeal tissue, Group 6, inhalation 0.1 mg/kg per day",543.12%
same,Percent increase in MMP-14 with respect to the control group,"laryngeal tissue, Group 7, inhalation 0.2 mg/kg per day",342.23%
same,Percent increase in MMP-14 with respect to the control group,"laryngeal tissue, Group 8, inhalation 0.4 mg/kg per day",201.28%
same,Percent increase in MMP-14 with respect to the control group,"lung tissue, Group 1, oral 10 mg/kg per day",683.47%
same,Percent increase in MMP-14 with respect to the control group,"lung tissue, Group 2, oral 40 mg/kg per day",569.37%
same,Percent increase in MMP-14 with respect to the control group,"lung tissue, Group 3, oral 80 mg/kg per day",441.85%
same,Percent increase in MMP-14 with respect to the control group,"lung tissue, Group 4, oral 100 mg/kg per day",354.84%
same,Percent increase in MMP-14 with respect to the control group,"lung tissue, Group 5, inhalation 0.05 mg/kg per day",769.70%
same,Percent increase in MMP-14 with respect to the control group,"lung tissue, Group 6, inhalation 0.1 mg/kg per day",323.25%
same,Percent increase in MMP-14 with respect to the control group,"lung tissue, Group 7, inhalation 0.2 mg/kg per day",184.50%
same,Percent increase in MMP-14 with respect to the control group,"lung tissue, Group 8, inhalation 0.4 mg/kg per day",153.36%
same,Percent increase in MMP-14 with respect to the control group,"nasal cavity tissue, Group 1, oral 10 mg/kg per day","1,016.51%"
same,Percent increase in MMP-14 with respect to the control group,"nasal cavity tissue, Group 2, oral 40 mg/kg per day",680.45%
same,Percent increase in MMP-14 with respect to the control group,"nasal cavity tissue, Group 3, oral 80 mg/kg per day",412.64%
same,Percent increase in MMP-14 with respect to the control group,"nasal cavity tissue, Group 4, oral 100 mg/kg per day",317.68%
same,Percent increase in MMP-14 with respect to the control group,"nasal cavity tissue, Group 5, inhalation 0.05 mg/kg per day","1,190.13%"
same,Percent increase in MMP-14 with respect to the control group,"nasal cavity tissue, Group 6, inhalation 0.1 mg/kg per day",510.81%
same,Percent increase in MMP-14 with respect to the control group,"nasal cavity tissue, Group 7, inhalation 0.2 mg/kg per day",206.80%
same,Percent increase in MMP-14 with respect to the control group,"nasal cavity tissue, Group 8, inhalation 0.4 mg/kg per day",149.00%
same,Percent increase in MMP-14 with respect to the control group,"pharyngeal tissue, Group 1, oral 10 mg/kg per day","1,148.43%"
same,Percent increase in MMP-14 with respect to the control group,"pharyngeal tissue, Group 2, oral 40 mg/kg per day",980.64%
same,Percent increase in MMP-14 with respect to the control group,"pharyngeal tissue, Group 3, oral 80 mg/kg per day",762.45%
same,Percent increase in MMP-14 with respect to the control group,"pharyngeal tissue, Group 4, oral 100 mg/kg per day",560.45%
same,Percent increase in MMP-14 with respect to the control group,"pharyngeal tissue, Group 5, inhalation 0.05 mg/kg per day","1,091.23%"
same,Percent increase in MMP-14 with respect to the control group,"pharyngeal tissue, Group 6, inhalation 0.1 mg/kg per day",709.21%
same,Percent increase in MMP-14 with respect to the control group,"pharyngeal tissue, Group 7, inhalation 0.2 mg/kg per day",245.45%
same,Percent increase in MMP-14 with respect to the control group,"pharyngeal tissue, Group 8, inhalation 0.4 mg/kg per day",135.00%
